From patent US20090209527A1, “Methods for Using Rapamycin Analogues in the Treatment of Neurological Disorders” (Wyeth, priority 2008, published 2009)
pEC50: −log10 of the molar value.

Key:
pMCAO in rats = experiment: Permanent occlusion of middle cerebral artery (pMCAO), Example 10, behavioral deficit scoring over 21 days; format: in vivo, Wistar rats; conditions: 10 mg/kg i.v. 1.5, 5.5, 24, 48 and 72 hours post ischemia
Protocol: Administration of Compound of Example 2—10 mg/kg i.v. 1.5, 5.5, 24, 48, and 72 hours post ischemia.
Adult male Wistar rats (Charles River, Wilmington, Mass.) 270 g to 300 g were anesthetized with 3% isoflurane in 70% nitrous oxide and 30% oxygen through a nose cone. Temperature was maintained at 37° C. throughout the surgery using a heating lamp. Permanent occlusion of MCAO was induced by electro cauterization of the distal portion of the MCA (via a craniotomy) with a 90 minute ligation of both carotid arteries to interrupt collateral circulation (Chen S T, Hsu C Y, Hogan E L, Maricq H Balentine J D (1986) A model of focal ischemic stroke in the rat: reproducible extensive cortical infarction. Stroke 17:738-743). Compound was administered 10 mg/kg i.v. 1.5, 5.5, 24, 48, and 72 hours post ischemia. Rats were kept for 21 days for long-term functional recovery evaluation. […] Rats extending both forelimbs toward the table were scored as 0, flexing contralateral limb toward the body and/or rotating the contralateral shoulder and limb medially were scored as 1, and rolling up the body toward the contralateral side and attempting to grasp the tail were scored as 2. […] Rats retracting hind limb back on bench top immediately were scored as 0, delaying (>2 seconds) were scored as 1, and unable to retract hind limb were score as 2. […]

cortical neuron cultures = experiment: Cortical neuron assay (neurite outgrowth in dissociated cortical neuron cultures); format: cell-based, rat
Protocol: Dissociated cortical neuron cultures were prepared as previously described (Liu et al., Screening of Immunophilin Ligands by Quantitative Analysis of Neurofilament Expression and Neurite Outgrowth in Cultured Neurons and Cells, J. Neurosci. Methods, 2007 Jul. 30; 163(2):310-20).
Briefly, embryonic day 15 rat fetuses were collected and dissected in ice-cold PBS. Dissected cortices were pooled together and transferred to an enzymatic dissociation medium containing papain. After 30 minutes, the tissue was mechanically triturated with a fire-polished glass Pasteur pipette. Single-cell suspensions in complete media were seeded on poly-L-ornithine and laminin coated 96-well plates. After 24 hours, cultures were treated with various concentrations of compound for 72 hours. The cultures were then fixed and stained with an anti-tubulin primary antibody (TUJ-1) and a fluorescent-tagged secondary antibody. Neurite outgrowth was determined by using the Enhanced Neurite Outgrowth (ENO) algorithm with the Cellomics ArrayScan and expressed as average neurite length or total neurite length per cell.

In the case of `CO[C@H]1C[C@@H]2CC[C@@H](C)[C@@](O)(O2)C(=O)C(=O)N2CCCC[C@H]2C(=O)O[C@H]([C@H](C)C[C@@H]2CC[C@@H](O)[C@H](OC)C2)CC(=O)[C@H](C)/C=C(\C)[C@@H](O)[C@@H](OC)C(=O)[C@H](C)C[C@H](C)[C@@H]2CC[C@H](/C=C/1C)ON2c1ccccc1` [Example 2, 9,27-dihydroxy-3-{2-[4-hydroxy-3-methoxycyclohexyl]-1-methylethyl}-10,21-dimethoxy-6,8,12,14,20,26-hexamethyl-37-phenyl-4,9,10,12,13,14,15,16,17,18,21,22,23,24,25,26,27,32,33,34,34a-henicosahydro-3H-23,27-epoxy-18,15-(epoxyimino)pyrido[2,1-c][1,4]oxazacyclohentriacontine-1,5,11,28,29(6H,31H)-pentone], the “behavior deficit scoring (total score 0 to 12) following pMCAO” value (pMCAO in rats) was “statistically significant reduction of behavior deficit scoring”, the pEC50 (cortical neuron cultures; Rattus norvegicus, Cortical neurone, 72 hours treatment, neurite outgrowth, read-out: EC50 in cortical neuron assays) was greater than 6.00 and the “neuronal survival and neurite outgrowth in cultured cortical neurons” value (cortical neuron cultures; summary statement) was “promotes neuronal survival and neurite outgrowth”.
